The values that follow come from patent US20200347389A1, “COMPOSITIONS AND METHODS FOR GENERATING DIVERSITY AT TARGETED NUCLEIC ACID SEQUENCES” (MONSANTO TECHNOLOGY LLC, priority 2019, published 2020).

Assay [1] concerns rpoB gene. Briefly: rpoB/Rif^r assay: EMS mutagenesis of E. coli KL16 carrying pNUC-dSpCas9 + pGUIDE-Sp-Zm7.1. Type of assay: cell-based, Escherichia coli. The note with it: for Rif^r CFUs in 5 μL (average) / Rif^r CFUs in 100 μL (average): one hour, cells with pNUC-dCas9 + pGUIDE-Sp-Zm7.1. From the text: This example describes the Escherichia coli rpoB gene and Rifampicin-resistant (Rif^r) mutations that map to rpoB as a system to characterize mutation rates and mutation types induced by chemical mutagens.
The E. coli K12 (strain MG1655) rpoB gene (SEQ ID NO: 1) encodes a subunit of the RNA polymerase complex (SEQ ID NO: 2) and is the target of the antibiotic rifampicin, a bacterial transcription inhibitor. A unique feature of the rpoB gene is that at least 69 nucleotide substitutions in 24 amino acid codons can confer the Rif^r phenotype to E. coli. This makes rpoB a useful target for screening and analyzing the type and frequency of nucleotide changes (e.g., additions, deletions, and substitutions induced by mutagens (reviewed in Garibyan et al., 2003, DNA Repair, 2:593-608). Furthermore, a majority of mutations that confer Rifampicin resistance (>90%) map to a relatively small, 268-nucleotide long, region of the rpoB gene. This allows PCR amplification with a single pair of oligonucleotide primers, followed by sequencing, which permits rapid analysis of numerous potential mutations. The aforementioned 268-bp fragment of the E. coli K12 rpoB gene is set forth as SEQ ID NO: 3. […] However, mutants comprising short, in-frame deletions (up to five amino acids) have been found, but at a much lower frequency (see, for example, Jin and Gross, J Mol Biol. 202:45-58 (1988)).
To test the rate and spectrum of mutations induced by EMS on rpoB, an experiment was performed where E. coli KL16 cells were co-transformed with pNUC-dSpCas9 and pGUIDE-Sp-Zm7.1; treated with 0.1% or 1% EMS. Resulting Rif^r mutations were selected and scored. The rpoB gene fragment (SEQ ID NO: 3) was sequenced from each colony and the predominant mutations were identified. As noted above in Example 2, pGUIDE-Sp-Zm7.1 is not expected to target the E. coli chromosome, and thus serves as a negative control.
Approximately 0.7 μL of pNUC-dSpCas9 and pGUIDE-Sp-Zm7.1 plasmid DNAs (approximate concentrations of 50 to 150 ng/μL) were added to 30 μL aliquots of electrocompetent E. coli KL16 cells. The cells and DNA were electroporated in 1 mm gap cuvettes, using Bio-Rad GenePulser II with settings described above in Example 2. Approximately 1 mL of S.O.C. medium was added to the cuvettes, mixed, transferred to culture tubes, and shaken in a 37° C. incubator shaker for ˜90 min at 280 RPM. Approximately 20 μL of the mix was diluted with 380 μL of S.O.C. medium (1:20 dilution), 100 μL was plated on LB plates containing +25 μg/mL Cm, +50 μg/mL Spect antibiotics followed by overnight incubation at 37° C. After overnight growth, the plates contained ˜100-400 uniform single colonies. Four to five single colonies from the plates were picked and mixed in 2.5 mL liquid LB media containing +25 μg/mL Cm, +50 μg/mL Spect. The culture was grown overnight at 37° C. with shaking at 280 RPM. The following day the saturated overnight culture was diluted into 3 mL of fresh LB +25 μg/mL Cm, +50 μg/mL Spect at a 1:20 ratio. After growth for ˜3 hours shaking (280 RPM) at 37° C., the culture was in exponential growth with an A600 absorbance measurement of ˜1. The culture was split into three 1 mL aliquots in Eppendorf tubes, then spun at full speed for one minute. The LB supernatant was removed and the small pellets were resuspended by gentle pipetting into 1 mL PBS and transferred to culture tubes.
Approximately 1 μL of EMS (Sigma M0880) was added to the first tube (0.1% EMS, final conc.) and approximately 10 μL of EMS was added to the second tube (1% EMS, final conc.). The third tube received no EMS (0% EMS). After mixing, the tubes were incubated at 37° C. with shaking for one hour. The 1 mL cultures were transferred back into Eppendorf tubes and spun at full speed for 1 minute. The pellets were washed once with PBS to remove EMS and resuspended in 1 mL LB+25 μg/mL Cm, +50 μg/mL Spect. […]

Assay [2] has as its system rpoB gene. Briefly: Deep sequencing of the rpoB fragment from Rif^r colonies. The note with it: 0.1% and 1% EMS, untargeted dCas9. In kind it is cell-based, Escherichia coli. On the procedure:
Ninety-six Rif^r colonies from 0.1% and 1% EMS treatment assays were picked and colony PCR was carried out to amplify the […] rpoB fragment. Approximately 20 μL PCRs reactions were carried out in 96 well plates, using forward and reverse primers comprising Illumina barcoded adaptors and designed to amplify a […] rpoB fragment associated with mutations conferring the Rif^r phenotype. The success of the reactions was checked by running ˜5 μL of 8-12 samples picked from across the 96 wells and running on e-gels. […] After obtaining the raw reads, adaptor sequences were removed with the program Cutadapt (Martin, EMBnet.journal, 2011, [S1], v17, n1, p. pp. 10-12, ISSN 2226-6089) and low quality reads are filtered with Trimmomatic (Version 0.36) (Bolger et al., Bioinformatics, 30:2114 (2014)). The program ‘glsearch’ (Pearson, Methods Mol Biol., 132:185-219 (2000)), was used to map reads to the reference rpoB sequence and to detect substitutions and small INDELs. […]
Individual colonies as well as plate scrapes (pooled colonies) were sequenced. […] Quality reads were obtained from 71 colonies for treatment 1, 92 colonies for treatment 2, and 89 colonies for treatment 3. Quality reads were also obtained from the Plate scrape samples.

For assay [3] the following is noted: EMS-mutated populations; cited from earlier work.
In assay [4] the test system is rpoB gene. The note with it: at eight sites; Garibyan et al.; cited from earlier work.
A further assay deals with DNA. The note with it: D832A/E925A (dLbCpf1); D10A/H840A (dSpCas9); cited from earlier work.

Regarding `CCOS(C)(=O)=O` [EMS, ethyl methanesulfonate], in the assay on rpoB gene [1] (0.1% EMS), the “increase of mutation rate relative to the spontaneous mutation rate” value is about 40 ×, the “Rif^r CFUs in 5 μL (average)” value stood at 18 CFUs and the “Rif^r CFUs in 100 μL (average)” value was 280 CFUs. For the same molecule, the “increase of mutation rate relative to the spontaneous mutation rate” value in the assay on rpoB gene [1] (1.0% EMS) was about 2600 ×. Moreover, in the assay with rpoB gene [1] (1% EMS), the “Rif^r CFUs in 5 μL (average)” value is given as 1036 CFUs and the “Rif^r CFUs in 100 μL (average)” value is reported as >10^4 CFUs. In addition, in the assay on rpoB gene [2], the “colonies with an in-frame 15 nucleotide deletion” value is “Four” and the “mutations previously described as inducing the Rif^r phenotype identified in the EMS screen” value is recorded as “ten of the thirteen”. Further, the “modifications that are G:C→A:T base pair transitions” value in assay [3] was 70% to 99%. Moreover, the “mutations identified within the 268-bp stretch of rpoB, all G:C→A:T transitions” value in the assay with rpoB gene [4] was 40.
As to “dSpCas9: dead SpCas9 with D10A and H840A substitutions (SEQ ID NO: 22)”, the DNA cleavage activity result in the assay on DNA is “complete abolishment of DNA cleavage activity”.
